Where two headings read alike, the source gives them in different places.
Tests used:
[1] = system: animal model of rheumatoid arthritis; conditions: rat, in vivo; cited from earlier work
[2] = system: animal models of inflammation; conditions: in vivo; cited from earlier work
[3] = type: in vivo; conditions: for Survival (animal recorded dead in weight table): first study; for survival status noted in Animal Weights table: second study, group 3
From the text: (§1) All animals were weighed daily and their survival recorded, in order to assess possible differences in animal weight among treatment groups as an indication for mucositis severity and/or possible toxicity resulting from the treatments.
All forty-eight (48) male Syrian Golden Hamsters were given an acute radiation dose of 40 Gy directed to their left buccal cheek pouch. This was accomplished by anesthetizing the animals and everting the left buccal pouch, while protecting the rest of the animal with a lead shield. Test materials were given either topically or by ip injection twice daily as detailed in Table 1. Mucositis was evaluated clinically starting on day 6, and continuing on alternate days until day 28. The study timeline is depicted in FIG. 1. Dose levels were determined based on the results of a previous acute toxicity study (data not shown), and the levels shown in Table 1.
(§2) Male LVG Syrian Golden Hamsters (Charles River Laboratories), aged 5 to 6 weeks, with average body weight of 84.1 g at study commencement, were used. Animals were individually numbered using an ear punch and housed in small groups of approximately 8 animals per cage. Animals were acclimatized prior to study commencement. During this period of 2 days, the animals were observed daily in order to reject animals that presented in poor condition.
The significance of these differences was evaluated by calculating the mean area under the curve for the percentage weight gain for each animal and comparing the groups using a OneWay ANOVA test. There was a significant difference between the control group and group 3 treated by ip injection with M40403 twice daily (30 mg/kg) on days −1 to 15 (P<0.001). There was also a significant difference between the control group and the group treated by ip injection with M40403 twice daily at 30 mg/kg/dose from day −1 to day 3 (P=0.018). No other significant differences were seen. […] Many of the groups with a significant reduction in weight gain are the same groups in which animal deaths were observed.

[4] = ACT-03 (Example 2): weights and survival; type: in vivo, Syrian Golden Hamsters; conditions: for Survival (animal status in score table): individual animal, by day 6
From the text: as §1
All seventy-two (72) male Syrian Golden Hamsters were given an acute radiation dose of 40 Gy directed to their left buccal cheek pouch. This was accomplished by anesthetizing the animals and everting the left buccal pouch, while protecting the rest of the animal with a lead shield. Test materials were given either topically or by ip injection twice daily as detailed in Table 5. Mucositis was evaluated clinically starting on day 6, and continuing on alternate days until day 28. The study timeline is depicted in FIG. 7. Dose levels were determined based on the results of a previous acute toxicity study (data not published), and in the prior mucositis study of Example 1, shown in Table 5.
as §2, with “[…]” for “84.1 g”, “3” for “2”
The significance of these differences was evaluated by calculating the mean area under the curve for the percentage weight gain for each animal and comparing the groups using a One-Way ANOVA test. There were significant differences between the vehicle control group and the group treated with M40403 at 30 mg/kg/dose once daily from day −1 to day 3 (P=0.039), he group treated with M40403 at 3 mg/kg/dose twice daily from day −1 to day 3 (P=0.040), the group treated with M40403 at 10 mg/kg/dose twice daily from day −1 to day 3 (0.018), the group treated with M40403 at 30 mg/kg/dose twice daily from day −1 to day 3 (P<0.001), the group treated with M40403 at 30 mg/kg/dose once daily from day 0 to day 3 (P=0.009) and the group treated with M40403 at 30 mg/kg/dose twice daily from day 0 to day 3 (P=0.002).

[Cl-].[Cl-].[Mn+2].c1cc2nc(c1)CN[C@@H]1CCCC[C@H]1NCCN[C@@H]1CCCC[C@H]1NC2 [M40403]
efficacy in an animal model of rheumatoid arthritis [1]: effective | efficacy in animal models of inflammation [2]: effective | Survival (animal recorded dead in weight table) ([3]; Group 2, day 0): dead | Survival (animal recorded dead in weight table) ([3]; Group 5, day 0): dead | Survival (animal recorded dead in weight table) ([3]; Group 6, day 0): dead | deaths during the study ([3]; group 3: ip 30 mg/kg bid day −1 to 15, hamster 19, after extended failure to gain weight): died on day 12 | deaths during the study ([3]; group 6: ip 30 mg/kg bid day −1 to 3, appeared to be anesthesia overdose): two | average weight gain, % of starting weight by day 28 ([3]; hamster, in vivo, ip, 3 mg/kg): 66.0% | weight gain during dosing ([3]; hamster, in vivo, ip, 30 mg/kg): general lack of weight gain during dosing | toxicity based on mortality and body weight ([3]; ip injections twice daily at 30 mg/kg): appear to show some toxicity | survival status noted in Animal Weights table ([3]; animal 19, day 12): dead | survival status noted in Animal Weights table ([3]; animal 23, day 0): dead | deaths during the study, all on the day of radiation (Day 0) ([4]; 30 mg/kg once daily day 0 to 3): Two | deaths during the study, all on the day of radiation (Day 0) ([4]; 30 mg/kg once daily day −1 to 3): Two | deaths during the study, all on the day of radiation (Day 0) ([4]; 30 mg/kg once daily on day 0 and day 7 (so in the source)): One | deaths during the study, all on the day of radiation (Day 0) ([4]; 30 mg/kg twice daily day −1 to 3): Two | survival status noted in Animal Weights table ([4]; first study, group 9 (30 mg/kg/dose twice daily on day 0 and on day 7), animal 70, day 0): dead | Survival (animal status in score table) ([4]; group 2): dead | Survival (animal status in score table) ([4]; group 5): dead | Survival (animal status in score table) ([4]; group 6): dead | toxicity based on observations of body weight ([4]; hamster, in vivo, ip): appear to show some toxicity | P, One-Way ANOVA on mean AUC of percentage weight gain v vehicle control ([4]; hamster, in vivo, ip, 3 mg/kg): 0.040 | average weight gain, % of starting weight during the study (day 28) ([4]; hamster, in vivo, ip, 3 mg/kg): 59.3% | P, One-Way ANOVA on mean AUC of percentage weight gain v vehicle control ([4]; hamster, in vivo, ip, 10 mg/kg): 0.018 | average weight gain, % of starting weight during the study (day 28) ([4]; hamster, in vivo, ip, 10 mg/kg): 56.2% | statistically significant reduction in growth rate v control ([4]; hamster, in vivo, ip, 30 mg/kg): did not exhibit some statistically significant reductions in growth rate | Survival (animal recorded dead in weight table) ([4]; second study, group 6, animal 45 on day 0, animal 46 on day 1): dead
